Consider one compound from paper PMC5432002, “The active site structure and catalytic mechanism of arsenite oxidase” (Scientific Reports, 2017).

The target of the experiment is T1, NT-26 arsenite oxidase (NT-26 Aio) (Pseudorhizobium banfieldiae, UniProt Q6VAL8).
T1 construct: gene aroA; A subunit with Mo site and [3Fe-4S], B subunit with Rieske [2Fe-2S]; with Arsenite oxidase subunit AioB
It is filed as binding.

Molecules are shown by their SMILES.

`O[As](O)O` [arsenite]: the “Mo....As EXAFS interaction” value is reported as “suggesting the presence of bound substrate or product through a Mo—O—As linkage”.
